In patent publication US7015242B2, “Methods for treating hyperactive gastrointestinal motility” (Wyeth, priority 2001, dated 2006):

Columns and labels:
[1] = tested on: isolated precontracted guinea pig ileum; assay: Isolated precontracted guinea pig ileum preparations in tissue bath
Procedure: Following the procedures of the previous example, the effects of retigabine on isolated precontracted guinea pig ileum preparations were studied. Sections of ileum were isolated from male guinea pigs and suspended in a tissue bath. One end of the tissue was anchored to the bottom of the bath, and the other end to a force transducer. Tissues were contracted with either 20 mM KCl or 200 nM carbachol. The KCNQ channel agonist retigabine was added to the tissue baths in increasing concentrations.

[2] = tested on: isolated carbachol contracted rat bladder strips; assay: Relaxation of isolated carbachol contracted rat bladder strips; details: for effect on retigabine-induced relaxation of bladder strips: M-current blockers added after retigabine
Procedure: (§1) Using quantitative rtPCR, the expression of KCNQ1, KCNQ3 and KCNQ5 potassium channels was identified in the rat urinary bladder. […] To further probe M-current activity in the bladder, retigabine (10 μM, M-current agonist) was tested in isolated bladder smooth muscle cells using standard patch-clamp techniques. […] This hyperpolarization was reversed by the addition of linopirdine (50 μM an M-current antagonist) to the tissue bath. […] This relaxation was reversed by the M-current blockers linopirdine and XE-991.

[3] = tested on: isolated bladder smooth muscle cells; assay: Patch-clamp of isolated bladder smooth muscle cells (M-current activity); type: cell-based, rat
Procedure: as §1

[4] = target: T1, KCNQ2/3 potassium channels (Homo sapiens, UniProt O43525+O43526); details: oocytes; cited from earlier work
T1 construct: host or cells: oocytes (heterologous expression, as described in the cited article)
T1 sequence (O43526 whole entry): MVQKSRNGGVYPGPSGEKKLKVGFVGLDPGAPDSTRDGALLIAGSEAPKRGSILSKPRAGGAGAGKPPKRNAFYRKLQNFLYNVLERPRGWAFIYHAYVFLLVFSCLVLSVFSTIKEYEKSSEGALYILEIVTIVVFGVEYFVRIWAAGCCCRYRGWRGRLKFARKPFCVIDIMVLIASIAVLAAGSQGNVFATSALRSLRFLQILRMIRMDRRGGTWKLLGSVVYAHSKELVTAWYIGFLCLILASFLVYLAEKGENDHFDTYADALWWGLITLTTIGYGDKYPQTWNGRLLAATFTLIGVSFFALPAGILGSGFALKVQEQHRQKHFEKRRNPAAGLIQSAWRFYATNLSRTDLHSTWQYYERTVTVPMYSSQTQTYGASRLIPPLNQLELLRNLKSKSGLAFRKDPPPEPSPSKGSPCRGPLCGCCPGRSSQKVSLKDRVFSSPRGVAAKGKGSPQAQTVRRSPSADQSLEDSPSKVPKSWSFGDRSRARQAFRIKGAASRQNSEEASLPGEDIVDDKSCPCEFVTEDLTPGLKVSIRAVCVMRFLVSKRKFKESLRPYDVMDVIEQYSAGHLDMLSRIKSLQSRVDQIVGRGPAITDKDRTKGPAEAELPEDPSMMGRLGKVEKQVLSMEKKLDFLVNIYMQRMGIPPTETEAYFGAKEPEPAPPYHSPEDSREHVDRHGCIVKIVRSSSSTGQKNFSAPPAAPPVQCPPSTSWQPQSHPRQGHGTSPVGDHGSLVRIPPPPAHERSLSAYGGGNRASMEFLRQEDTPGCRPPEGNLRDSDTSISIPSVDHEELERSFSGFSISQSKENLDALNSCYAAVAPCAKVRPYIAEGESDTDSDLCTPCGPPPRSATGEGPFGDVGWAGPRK
T1 sequence (O43525 whole entry): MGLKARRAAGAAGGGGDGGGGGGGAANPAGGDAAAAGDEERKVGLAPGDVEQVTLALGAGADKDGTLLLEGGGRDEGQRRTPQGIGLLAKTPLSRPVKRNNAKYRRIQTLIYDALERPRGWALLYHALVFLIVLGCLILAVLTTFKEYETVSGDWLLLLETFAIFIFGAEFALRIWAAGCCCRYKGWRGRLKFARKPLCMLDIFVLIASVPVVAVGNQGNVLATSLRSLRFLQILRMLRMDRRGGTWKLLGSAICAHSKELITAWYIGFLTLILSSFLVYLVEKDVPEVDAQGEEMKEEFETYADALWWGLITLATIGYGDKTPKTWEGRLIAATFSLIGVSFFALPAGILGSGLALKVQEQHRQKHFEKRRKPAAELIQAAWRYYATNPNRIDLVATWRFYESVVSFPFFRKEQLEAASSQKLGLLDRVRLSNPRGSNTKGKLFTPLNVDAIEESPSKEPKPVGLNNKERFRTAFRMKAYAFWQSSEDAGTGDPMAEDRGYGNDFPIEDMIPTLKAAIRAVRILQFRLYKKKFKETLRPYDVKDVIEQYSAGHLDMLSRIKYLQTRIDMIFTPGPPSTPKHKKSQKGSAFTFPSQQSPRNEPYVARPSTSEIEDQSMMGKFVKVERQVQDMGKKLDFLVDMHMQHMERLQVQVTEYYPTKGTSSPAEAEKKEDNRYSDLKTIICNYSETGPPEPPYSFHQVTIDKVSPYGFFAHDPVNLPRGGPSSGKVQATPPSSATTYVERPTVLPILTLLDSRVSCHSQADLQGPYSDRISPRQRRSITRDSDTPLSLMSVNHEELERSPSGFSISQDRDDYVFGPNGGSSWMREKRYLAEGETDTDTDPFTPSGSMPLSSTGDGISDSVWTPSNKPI

| Compound | effect on responses to retigabine in ileum ([1]; both KCl and carbachol contracted tissues) | effect on retigabine-induced relaxation of bladder strips [2] | effect on retigabine-induced hyperpolarization ([3]; linopirdine 50 μM added to the tissue bath) | channel deactivation [4] | rate of channel activation [4] | voltage dependence of channel activation [4] | inhibition of contraction of ileum ([1]; tissues contracted with 20 mM KCl or 200 nM carbachol, increasing concentrations) | membrane hyperpolarization ([3]; retigabine 10 μM, n=5) [mV] | outward current insensitive to iberiotoxin ([3]; retigabine 10 μM, standard patch-clamp) | IC50 ([2]; Rattus norvegicus, read-out: IC50 of relaxation of carbachol contracted bladder strips) [µM] |
| --- | --- | --- | --- | --- | --- | --- | --- | --- | --- | --- |
| O=C1c2ccccc2C(Cc2ccncc2)(Cc2ccncc2)c2ccccc21 [XE-991] | antagonized | reversed | – | – | – | – | – | – | – | – |
| O=C1N(c2ccccc2)c2ccccc2C1(Cc1ccncc1)Cc1ccncc1 [linopirdine] | – | reversed | reversed | – | – | – | – | – | – | – |
| CCOC(=O)Nc1ccc(NCc2ccc(F)cc2)cc1N [retigabine, N-[2-amino-4-(4-fluorobenzylamino)-phenyl]carbamic acid ethyl ester] | – | – | – | slows channel deactivation | increases the rate of channel activation | shifts the voltage dependence of channel activation to more hyperpolarized membrane potentials | concentration-dependent inhibition of contraction | 17.8±3.0 | significantly increased | 3.5 ± 0.9 |
